In patent publication US8420311B2, “Method to block the infection by flaviviruses, molecules and uses” (Centro de Ingenieria Genetica y Biotecnologia, priority 2006, dated 2013):
Where a SMILES comes first, the peptide text is derived from it. Bridges are numbered along the chain shown (N, C = ends). Where no end group is shown, it is not given here.

Key:
DV1 = format: cell-based, dengue virus; conditions: peptides 0.1 mg/ml; Vero cells
Method: (§1) FIG. 17. Inhibition of the infection of Vero cells with DV1 and DV2. (A) Six-well plates with a monolayer at approximately 90% confluence were incubated for 30 min. at 37° C. with dilutions of the peptides in MEM medium. A dilution of either DV1 strain West Pac 74 or DV2 strain S16803 was then added, calculated so as to obtain an average of 100 lytic plaques per well, and the plates were incubated for 30 min. at 37° C. with the virus/peptide mixture. After the incubation the cells were washed twice, received the addition of MEM medium supplemented with non-essential amino acids, 1% fetal calf serum, 1% CMC, and finally were incubated for 5 days at 37° C. under a CO2 atmosphere. (B) Inhibitory effect of the peptides at 100 μMol/L. NRpep: Non-related peptide. Data on the sequence of the peptides 3H5pept (SEQ ID. 27), pepDIII-1 (SEQ ID. 28), HIII2CL (SEQ ID. 5) and HIII3CL (SEQ ID. 7), as well as on the region they span on DIII from DV, can be obtained from FIG. 11. The calculation of the inhibition percentages is described in Materials and Methods. (C) Inhibition of DV2 infection by using varying peptide concentrations. The viral plaques were visualized by staining with Naphtol Blue Black. Cell control: Untreated cells. Virus control: Cells incubated with the virus, but without peptide.
(§2) DIII has one of the most variable regions of the exposed surface of protein E. In fact, one of the antigenic characteristics of this domain is that the antibodies obtained against this region are predominantly serotype-specific (Roehrig J T, Bolin R A, Kelly R G (1998) Monoclonal antibody mapping of the envelope glycoprotein of the dengue 2 virus, Jamaica Virology 246:317-28). However, during the inhibition assay with different DV serotypes, the peptides display a wide-spectrum inhibitory activity, efficiently inhibiting the infection of strains of the homologous, as well as of the heterologous serotypes (table 3). It is important to notice that at the assayed concentration (0.1 mg/ml) all the peptides in all the conditions, with the exception of peptide HIII4CL for DV3, produced higher than 50% inhibition levels.

DV2 = format: cell-based, dengue virus; conditions: peptides 0.1 mg/ml; Vero cells
Method: as §1, §2

DV3 = format: cell-based, dengue virus; conditions: for degree of reduction of the number of viral plaques, DV3: peptides 0.1 mg/ml, Vero cells
Description: as §2

DV4 = format: cell-based, dengue virus; conditions: peptides 0.1 mg/ml; Vero cells
Description: as §2

[1] = biological target: T1, DIIIE2J (DIII from protein E of DV2) (Dengue virus type 2, UniProt P07564); test: Direct binding between DIIIE2J and A2M measured by Biacore; parameters: species or system DV2 strain Jamaica 1409; conditions: A2M 0.3 to 3 μMol/L
T1 construct: made in house; host or cells: Escherichia coli BL21(DE3)
T1 sequence (P07564 568-687, looked up, natural form): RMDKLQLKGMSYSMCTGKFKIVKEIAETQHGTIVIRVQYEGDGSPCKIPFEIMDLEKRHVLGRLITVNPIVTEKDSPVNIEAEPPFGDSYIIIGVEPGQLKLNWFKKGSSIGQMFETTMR
Method: FIG. 6. Direct binding between DIIIE2J and A2M, measured by Biacore. Response curves obtained during and after the injection of (B) Monoclonal antibodies against DV serotype 2 (3H5) and against all FV (4G2); (C) Polyclonal mouse antibody preparations obtained by immunization with DV1 and DV2, including pre-immune sera and (D) A2M dilutions, at concentrations from 0.3 μMol/L to 3 μMol/L. The run was performed on PBS pH 7.4 at 25° C. The different A2M dilutions were loaded at a flow of 5 μL/min for 20 min. The response is represented in resonance units (RU) corrected for unspecific binding using the response from the channel without immobilized protein (less than 5% of the specific signal).
A cm5 chip (Biacore, Sweden) was used for the covalent immobilization of the DIIIE2J and LRP1 proteins. The immobilization was carried out at 25° C., with a flow of 5 μL/min and using HBS (Biacore, Sweden) as running buffer. The surface of the chip was activated by loading 35 μL of 0.2 Mol/L […] (EDC) and 0.05 Mol/L N-hydroxysuccinimide (NHS). Afterwards the proteins, dissolved in 10 mM sodium acetate buffer pH 4.5, were loaded into the system. At the end of the immobilization, 35 μL of 1 M ethanolamine pH 8 were loaded into the system in order to block any remaining free activated groups. The channel to be used as a negative control in each case received only the activating injections with the EDC:NHS solution and the blocking with ethanolamine, employing the same flow and injection volume. The results were analyzed using the BIAevaluation ver. 4.1 software application package (Biacore, Sweden).
In order to estimate the strength of the interaction between DIIIE2J and human A2M, 1600 RU of DIIIE2J were covalently immobilized on a CM5 chip (channel 1, FIG. 6A) (Biacore, Sweden), following the procedure described in the Materials and Methods section. […]

## CC[C@H](C)[C@@H]1NC(=O)[C@H](Cc2ccc(O)cc2)NC(=O)[C@H](CO)NC(=O)[C@@H](N)CSSC[C@@H](C(N)=O)NC(=O)[C@H](Cc2c[nH]c3ccccc23)NC(=O)[C@H](Cc2c[nH]cn2)NC(=O)[C@H](CC(C)C)NC(=O)[C@H]([C@@H](C)O)NC(=O)[C@H](CC(C)C)NC(=O)[C@H](C)NC(=O)[C@H](CO)NC(=O)[C@H](CC(N)=O)NC(=O)CNC(=O)[C@H](C(C)C)NC(=O)CNC(=O)[C@H]([C@@H](C)CC)NC(=O)[C@H](C(C)C)NC1=O [HDIII4CL] (H-CSYIVIGVGNSALTLHWC-NH2; disulfide 1-18; N-terminus assumed)
DV1
  degree of reduction of the number of viral plaques, DV1: + (50% or higher decrease)
DV2
  degree of reduction of the number of viral plaques, DV2: + (50% or higher decrease)
DV3; 0.1 mg/ml
  inhibition level, DV3: ≤ 50%
DV3
  degree of reduction of the number of viral plaques, DV3: +/− (10-50% decrease in the number of plaques)
DV4
  degree of reduction of the number of viral plaques, DV4: + (50% or higher decrease)

## HDIII1CL: cyclic synthetic peptide based on the FG beta hairpin of DIII of protein E from DV1, SEQ ID. 6 (CSYIVVGAGEKALKLSWC-NH2; disulfide 1-18 (inferred))
DV1
  degree of reduction of the number of viral plaques, DV1: + (50% or higher decrease)
DV2
  degree of reduction of the number of viral plaques, DV2: + (50% or higher decrease)
DV3
  degree of reduction of the number of viral plaques, DV3: + (50% or higher decrease)
DV4
  degree of reduction of the number of viral plaques, DV4: + (50% or higher decrease)

B1: A2M: human Alfa 2-macroglobulin purified from human plasma, Seq. ID. 2 (protein, listed as Homo sapiens)
chain: MGKNKLLHPSLVLLLLVLLPTDASVSGKPQYMVLVPSLLHTETTEKGCVLLSYLNETVTVSASLESVRGNRSLFTDLEAENDVLHCVAFAVPKSSSNEEVMFLTVQVKGPTQEFKKRTTVMVKNEDSLVFVQTDKSIYKPGQTVKFRVVSMDENFHPLNELIPLVYIQDPKGNRIAQWQSFQLEGGLKQFSFPLSSEPFQGSYKVVVQKKSGGRTEHPFTVEEFVLPKFEVQVTVPKIITILEEEMNVSVCGLYTYGKPVPGHVTVSICRKYSDASDCHGEDSQAFCEKFSGQLNSHGCFYQQVKTKVFQLKRKEYEMKLHTEAQIQEEGTVVELTGRQSSEITRTITKLSFVKVDSHFRQGIPFFGQVRLVDGKGVPIPNKVIFIRGNEANYYSNATTDEHGLVQFSINTTNVMGTSLTVRVNYKDRSPCYGYQWVSEEHEEAHHTAYLVFSPSKSFVHLEPMSHELPCGHTQTVQAHYILNGGTLLGLKKLSFYYLIMAKGGIVRTGTHGLLVKQEDMKGHFSISIPVKSDIAPVARLLIYAVLPTGDVIGDSAKYDVENCLANKVDLSFSPSQSLPASHAHLRVTAAPQSVCALRAVDQSVLLMKPDAELSASSVYNLLPEKDLTGFPGPLNDQDDEDCINRHNVYINGITYTPVSSTNEKDMYSFLEDMGLKAFTNSKIRKPKMCPQLQQYEMHGPEGLRVGFYESDVMGRGHARLVHVEEPHTETVRKYFPETWIWDLVVVNSAGVAEVGVTVPDTITEWKAGAFCLSEDAGLGISSTASLRAFQPFFVELTMPYSVIRGEAFTLKATVLNYLPKCIRVSVQLEASPAFLAVPVEKEQAPHCICANGRQTVSWAVTPKSLGNVNFTVSAEALESQELCGTEVPSVPEHGRKDTVIKPLLVEPEGLEKETTFNSLLCPSGGEVSEELSLKLPPNVVEESARASVSVLGDILGSAMQNTQNLLQMPYGCGEQNMVLFAPNIYVLDYLNETQQLTPEVKSKAIGYLNTGYQRQLNYKHYDGSYSTFGERYGRNQGNTWLTAFVLKTFAQARAYIFIDEAHITQALIWLSQRQKDNGCFRSSGSLLNNAIKGGVEDEVTLSAYITIALLEIPLTVTHPVVRNALFCLESAWKTAQEGDHGSHVYTKALLAYAFALAGNQDKRKEVLKSLNEEAVKKDNSVHWERPQKPKAPVGHFYEPQAPSAEVEMTSYVLLAYLTAQPAPTSEDLTSATNIVKWITKQQNAQGGFSSTQDTVVALHALSKYGAATFTRTGKAAQVTIQSSGTFSSKFQVDNNNRLLLQQVSLPELPGEYSMKVTGEGCVYLQTSLKYNILPEKEEFPFALGVQTLPQTCDEPKAHTSFQISLSVSYTGSRSASNMAIVDVKMVSGFIPLKPTVKMLERSNHVSRTEVSSNHVLIYLDKVSNQTLSLFFTVLQDVPVRDLKPAIVKVYDYYETDEFAIAEYNAPCSKDLGNA
[1]
  nature of the interaction between both proteins: saturable and reversible
[1]; immobilized DIIIE2J, PBS pH 7.4 at 25° C., read-out: apparent Kd
  Kd: ~100 nM
